{"source": "patent US20230146455A1", "about": "“TREATMENT OF INFLAMMATORY DISEASES WITH PEPTIDES AND PHARMACEUTICAL COMPOSITIONS” (Yuyu Pharma, Inc., priority 2020, published 2023)", "key": {"[1]": {"system": "IL-6 cytokine release in poly I:C stimulated primary human corneal epithelial cells", "assay": "Soluble IL-6 cytokine release in poly I:C stimulated primary human corneal epithelial cells by ELISA (Example 2)", "format": "cell-based", "conditions": "30, 10, 1, 0.1, 0.01, 0.001 μM, 25 μg/mL poly I:C, 24 hours", "protocol": "Assay protocol as shown below was used to determine the significant effect of test compounds. The data was statistically analyzed by one-way ANOVA with a Bonferroni post test comparing all the columns. The significance was represented by the p value.\nSelected YDE peptides (YDE-093, -096, -100, -101, -102, -103, -104, -105, -106 and -107) were evaluated by assessing the soluble IL-6 cytokine release in poly I:C stimulated primary human corneal epithelial cells by ELISA (Biolegend, 430504).\nSpecifically, primary corneal epithelial cells (ATCC, ATCC PCS-700-010) were seeded on a 6-well culture plate containing the Corneal Epithelial Cell Basal Medium (ATCC, ATCC PCS-700-030) in the Corneal Epithelial Cell Growth Kit (ATCC, ATCC PCS-700-040) in an amount of 1.2×10^5 cells per well, which was then cultured for 24 hours under the conditions of 37° C. and 5% CO2. Then, cells were washed with 1×PBS and replaced with serum free medium which was then cultured for 2 hours under the conditions of 37° C. and 5% CO2.\nAfter 2 hours, cells were treated with compounds at 6 differential concentrations (Hinokitiol/YDE peptides at 30, 10, 1, 0.1, 0.01, and 0.001 μM) with the DMSO final 0.5% and then cultured for 1 hour under the conditions of 37° C. and 5% CO2.\nAfter 1 hour, cells were further treated with 25 μg/mL of poly I:C and cultured for 24 hours under the conditions of 37° C. and 5% CO2.\nFollowing incubation, the supernatant was collected for IL-6 levels was assessed by Sandwich ELISA (Enzyme-linked immunosorbent assay) following manufacturer's instructions. The data was statistically analyzed by one-way ANOVA with a Bonferroni post-test comparing all the columns. The significance was represented by the p value."}, "NF-kB (p65)": {"system": "NF-kB (p65)", "assay": "NF-kB (p65) transcription activity in poly I:C stimulated primary human corneal epithelial cells (Example 5)", "format": "cell-based", "from_the_text": "(§1) To determine the effect of YDE053 on NF-kB (p65) transcription activity in poly I:C stimulated primary human corneal epithelial cells. Study Plan • Test System: Primary Human Corneal Epithelial cells • Assay Format: 96-well plate format • Method of Detection: Enzyme-linked immunosorbent assay • Assay Controls: Hinokitiol Assay protocol as shown below was used to determine the significant effect of test compounds. The data was statistically analyzed by one-way ANOVA with a Bonferroni post test comparing all the columns. The significance was represented by the p value."}, "[2]": {"system": "IL-6 cytokine release in poly I:C stimulated primary human corneal epithelial cells", "assay": "Soluble IL-6 cytokine release in poly I:C stimulated primary human corneal epithelial cells by ELISA (Example 6)", "format": "cell-based", "from_the_text": "as §1, with “compound by assessing the soluble IL-6 cytokine release” for “YDE053 on NF-kB (p65) transcription activity”, “cells by ELISA.” for “cells. Study Plan”"}, "[3]": {"system": "IL-1beta, IL-6, IL-8, MIP-1alpha, MIP-1beta, RANTES, and TNF-alpha release in poly I:C stimulated primary human corneal epithelial cells", "assay": "Panel of soluble proteins release in poly I:C stimulated primary human corneal epithelial cells by Multiplex (Example 4)", "format": "cell-based", "conditions": "for IL-6, MFI Mean±SD: Stimulated 14801±407, p<0.05", "from_the_text": "as §1, with “compound by assessing the panel of soluble proteins release” for “YDE053 on NF-kB (p65) transcription activity”, “cells by Multiplex.” for “cells. Study Plan”, “described” for “shown”"}, "[4]": {"system": "CIA-induced Rheumatoid Arthritis", "assay": "Mouse CIA-induced Rheumatoid Arthritis Model: body weight, hind paw thickness, clinical score (Example 13)", "format": "in vivo", "conditions": "CII-injected mice", "from_the_text": "Clinical score: 0—no change; 1—swelling and erythema of the digit; 2—mild swelling and erythema of the limb; 3—gross swelling and erythema of the digit; 4—gross deformity and inability to use the limb."}, "[5]": {"system": "primary corneal epithelial cells", "assay": "Cell proliferation of primary corneal epithelial cells (CellTiter-Glo, Example 3)", "format": "cell-based, human", "protocol": "• Test System: HCE cells from ATCC. • Assay Format: 96-well plate format • Method of Detection: CellTiter-Glo Luminescent Cell Viability Assay (Pro mega, Cat #G7573) • Assay Controls: Reference compound (hEGF) and untreated cells • Test Samples: 57 • Media: Corneal Epithelial Cell Basal Medium+Cell growth kit components EXPERIMENTAL DESIGN\nSpecifically, 5000 primary corneal epithelial cells/well were seeded in a white opaque 96-well plate and incubated for 24 hrs in a 37° C. incubator supplemented with 5% CO2. After 24 hours, test compounds were treated at 8 different concentrations. Cells treated with compounds were incubated for 48 & 72 hrs at 37° C. in a 5% CO2 incubator. Post appropriate incubation time points, CellTiter-Glo luminescent reagent (Promega, Cat #G7573) was added to the plates and incubated at room temperature for 30 min. Luminescence signal was captured using EnVision^2104® Multilabel reader. Assay controls were reference compound (hEGF) and untreated cells."}}}
{"compound": "CC(C)c1cccc(=O)c(O)c1", "note": "[Hinokitiol]", "values": [{"measurement": "Poly I:C induced IL-6 cytokine release (in words)", "setting": "[1]", "result": "significantly attenuate the Poly I:C stimulated IL-6 cytokine release in a dose dependent manner"}, {"measurement": "phosphorylation of (p65) NF-kB in Poly I:C stimulated cells (in words)", "setting": "NF-kB (p65)", "result": "significantly attenuate the phosphorylation of (p65) NF-kB in Poly I:C stimulated cells in a dose dependent manner"}, {"measurement": "Poly I:C induced IL-6 cytokine release (in words)", "setting": "[2]", "result": "significantly attenuate the Poly I:C stimulated IL-6 cytokine release in a dose dependent manner"}, {"measurement": "Poly I:C stimulated cytokines release (IL-1beta, IL-6, IL-8, MIP-1alpha, MIP-1beta, RANTES, and TNF-alpha) (in words)", "setting": "[3]; Multiplex", "result": "significantly attenuate the Poly I:C stimulated cytokines release"}, {"measurement": "IL-6, MFI Mean±SD", "setting": "[3]; Stimulated + 1 μM", "result": "7004±376"}, {"measurement": "IL-6, MFI Mean±SD", "setting": "[3]; Stimulated + 10 μM", "result": "7011±471"}, {"measurement": "IL-6, MFI Mean±SD", "setting": "[3]; Stimulated + 30 μM", "result": "6759±500"}]}
{"compound": "C[C@@H]1C[C@H]2[C@@H]3CCC4=CC(=O)C=C[C@]4(C)[C@@]3(F)[C@@H](O)C[C@]2(C)[C@@]1(O)C(=O)CO", "note": "[dexamethasone]", "values": [{"measurement": "body weight (in words)", "setting": "[4]", "result": "lead to a decease in body weight in mice"}]}
{"compound": "Human epidermal growth factor (NSDSECPLSHDGYCLHDGVCMYIEALDKYACNCVVGYIGERCQYRDLKWWELR; UniProt P01133 971-1023, looked up) [hEGF]", "values": [{"measurement": "cell proliferation (in words)", "setting": "[5]; 48 hrs or 72 hrs, 30 to 0.01 μM", "result": "Concentration dependent proliferation of primary corneal epithelial cells"}, {"measurement": "maximum proliferation", "setting": "[5]; highest tested concentration of 30 μM, 48 hrs", "result": "~40", "unit": "%"}]}
